Results published in the supplement of paper PMC8612539.

Tested on: Escherichia coli
Assay: minimum inhibitory concentration (MIC)
Description: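 Broth microdilution MIC (Sensititre BOPO7F bovine plate, CLSI methods) of 19 antimicrobials against field isolates of P. multocida, M. haemolytica, H. somni (deep nasopharyngeal swabs) and E. coli, Enterococcus spp. (rectal swabs) from weaned dairy heifers. Incubation 16-24 h at 35 C. MIC is the lowest concentration preventing visible growth. Values with <= or > lie at the tested range limits. Trimethoprim-sulfamethoxazole is given as the trimethoprim component of a 1:19 mixture.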

COc1cc(Cc2cnc(N)nc2N)cc(OC)c1OC.Cc1cc(NS(=O)(=O)c2ccc(N)cc2)no1 [trimethoprim-sulfamethoxazole]
Conditions	minimum inhibitory concentration [µg/mL]
isolate (source animal id): 171	≤ 2
isolate (source animal id): 172	≤ 2
isolate (source animal id): 173	≤ 2
isolate (source animal id): 174	≤ 2
isolate (source animal id): 175	≤ 2
isolate (source animal id): 176	≤ 2
isolate (source animal id): 177	≤ 2
isolate (source animal id): 178	≤ 2
isolate (source animal id): 179	≤ 2
isolate (source animal id): 180	≤ 2
isolate (source animal id): 181	≤ 2
isolate (source animal id): 182	≤ 2
isolate (source animal id): 183	≤ 2
isolate (source animal id): 184	≤ 2
isolate (source animal id): 185	≤ 2
isolate (source animal id): 186	≤ 2
isolate (source animal id): 187	≤ 2
isolate (source animal id): 188	> 2
isolate (source animal id): 189	≤ 2
isolate (source animal id): 190	> 2
isolate (source animal id): 191	≤ 2
isolate (source animal id): 192	≤ 2
isolate (source animal id): 193	≤ 2
isolate (source animal id): 194	≤ 2
isolate (source animal id): 195	≤ 2
isolate (source animal id): 196	≤ 2
isolate (source animal id): 197	≤ 2
isolate (source animal id): 198	> 2
isolate (source animal id): 199	≤ 2
isolate (source animal id): 200	≤ 2
isolate (source animal id): 201	≤ 2
isolate (source animal id): 202	≤ 2
isolate (source animal id): 203	≤ 2
isolate (source animal id): 204	≤ 2
isolate (source animal id): 205	≤ 2
isolate (source animal id): 206	≤ 2
isolate (source animal id): 207	≤ 2
isolate (source animal id): 208	≤ 2
isolate (source animal id): 209	≤ 2
isolate (source animal id): 210	≤ 2
isolate (source animal id): 211	≤ 2
isolate (source animal id): 212	≤ 2
isolate (source animal id): 213	≤ 2
isolate (source animal id): 214	≤ 2
isolate (source animal id): 215	≤ 2
isolate (source animal id): 216	> 2
isolate (source animal id): 217	≤ 2
isolate (source animal id): 218	≤ 2
isolate (source animal id): 219	≤ 2
isolate (source animal id): 220	≤ 2
isolate (source animal id): 221	≤ 2
isolate (source animal id): 222	≤ 2
isolate (source animal id): 223	≤ 2
isolate (source animal id): 224	≤ 2
isolate (source animal id): 225	≤ 2
isolate (source animal id): 226	> 2
isolate (source animal id): 227	≤ 2
isolate (source animal id): 228	≤ 2
isolate (source animal id): 229	> 2
isolate (source animal id): 230	≤ 2
isolate (source animal id): 231	≤ 2
isolate (source animal id): 232	≤ 2
isolate (source animal id): 233	≤ 2
isolate (source animal id): 234	≤ 2
isolate (source animal id): 235	≤ 2
isolate (source animal id): 236	≤ 2
isolate (source animal id): 237	≤ 2
isolate (source animal id): 238	≤ 2
isolate (source animal id): 239	≤ 2
isolate (source animal id): 240	≤ 2
isolate (source animal id): 241	≤ 2
isolate (source animal id): 242	≤ 2
isolate (source animal id): 243	≤ 2
isolate (source animal id): 244	≤ 2
isolate (source animal id): 245	≤ 2
isolate (source animal id): 246	≤ 2
isolate (source animal id): 247	≤ 2
isolate (source animal id): 248	≤ 2
isolate (source animal id): 249	≤ 2
isolate (source animal id): 250	≤ 2
isolate (source animal id): 251	≤ 2
isolate (source animal id): 252	≤ 2
isolate (source animal id): 253	≤ 2
isolate (source animal id): 254	≤ 2
isolate (source animal id): 255	≤ 2
isolate (source animal id): 256	≤ 2
isolate (source animal id): 257	≤ 2
isolate (source animal id): 258	≤ 2
isolate (source animal id): 259	> 2
isolate (source animal id): 260	≤ 2
isolate (source animal id): 261	≤ 2
isolate (source animal id): 262	≤ 2
isolate (source animal id): 263	≤ 2
isolate (source animal id): 264	≤ 2
isolate (source animal id): 265	≤ 2
isolate (source animal id): 266	≤ 2
isolate (source animal id): 267	≤ 2
isolate (source animal id): 268	≤ 2
isolate (source animal id): 269	≤ 2
isolate (source animal id): 270	≤ 2
isolate (source animal id): 271	≤ 2
isolate (source animal id): 272	≤ 2
isolate (source animal id): 273	≤ 2
isolate (source animal id): 274	> 2
isolate (source animal id): 275	> 2
isolate (source animal id): 276	≤ 2
isolate (source animal id): 277	≤ 2
isolate (source animal id): 278	≤ 2
isolate (source animal id): 279	≤ 2
isolate (source animal id): 280	≤ 2
isolate (source animal id): 281	≤ 2
isolate (source animal id): 282	≤ 2
isolate (source animal id): 283	≤ 2
isolate (source animal id): 284	≤ 2
isolate (source animal id): 285	≤ 2
isolate (source animal id): 286	> 2
isolate (source animal id): 287	> 2
isolate (source animal id): 288	≤ 2
isolate (source animal id): 289	≤ 2
isolate (source animal id): 290	≤ 2
isolate (source animal id): 291	> 2
isolate (source animal id): 292	> 2
isolate (source animal id): 293	≤ 2
isolate (source animal id): 294	≤ 2
isolate (source animal id): 295	> 2
isolate (source animal id): 296	≤ 2
isolate (source animal id): 297	≤ 2
isolate (source animal id): 298	> 2
isolate (source animal id): 299	≤ 2
isolate (source animal id): 300	≤ 2
isolate (source animal id): 301	≤ 2
isolate (source animal id): 302	≤ 2
isolate (source animal id): 303	≤ 2
isolate (source animal id): 304	> 2
isolate (source animal id): 305	≤ 2
isolate (source animal id): 306	≤ 2
isolate (source animal id): 307	≤ 2
isolate (source animal id): 308	≤ 2
isolate (source animal id): 309	≤ 2
isolate (source animal id): 310	≤ 2
isolate (source animal id): 311	> 2
isolate (source animal id): 312	≤ 2
isolate (source animal id): 313	≤ 2
isolate (source animal id): 314	≤ 2
isolate (source animal id): 315	≤ 2
isolate (source animal id): 316	> 2
isolate (source animal id): 317	> 2
isolate (source animal id): 318	≤ 2
isolate (source animal id): 319	≤ 2
isolate (source animal id): 320	≤ 2
isolate (source animal id): 321	> 2
isolate (source animal id): 322	≤ 2
isolate (source animal id): 323	> 2
isolate (source animal id): 324	≤ 2
isolate (source animal id): 325	> 2
isolate (source animal id): 326	≤ 2
isolate (source animal id): 327	≤ 2
isolate (source animal id): 328	≤ 2
isolate (source animal id): 329	≤ 2
isolate (source animal id): 330	≤ 2
isolate (source animal id): 331	≤ 2
isolate (source animal id): 332	≤ 2
isolate (source animal id): 333	≤ 2
isolate (source animal id): 334	> 2
isolate (source animal id): 335	≤ 2
isolate (source animal id): 336	≤ 2
isolate (source animal id): 337	≤ 2
isolate (source animal id): 338	> 2
isolate (source animal id): 339	≤ 2
isolate (source animal id): 340	≤ 2
isolate (source animal id): 341	≤ 2
